Results published in patent US9540418B2, “Polypeptide specifically binding to rare earth nanoparticles and use thereof” (University of Science and Technology of China, priority 2012, dated 2017).

Legend:
[1] = Binding ability of FITC-RE-1 to various inorganic nanomaterials (fluorescence spectrophotometer)
Method: 10 μg of FITC-RE-1 polypeptide was incubated with 100 μL of various inorganic nanomaterials (1 mg/mL) at room temperature for 1 hr, and then centrifuged at 12000 rpm for 10 min. The resulting precipitate was washed 3 times. Then, a fluorescence spectrophotometer (RF-5301 PC, Shimadzu, Japan) was used to detect FITC (emission wavelength: 535 nm). The standard curve of fluorescence intensity vs. concentration for FITC-RE-1 was used as control, and thus the binding ability of the various inorganic nanomaterials to FITC-RE-1 polypeptide was determined. […] However, RE-1 hardly bound to non rare-earth materials, such as diamond, TiO2, SiO2, SiO3, and nano-silver (FIG. 4).

HeLa cells [2] = experiment: Cytotoxicity of UCN or UCP with or without RE-1 (MTT, PI staining); format: cell-based; conditions: 10-1000 μg/mL, 24 hr, MTT and PI staining
Method: MTT cell vitality assay is performed as follows: The cells to which samples have been added are cultured for 24 hr, and then 0.5 mg/mL MTT solution is added and cultured for 4 hr. The MTT solution in the well is discharged, and then 200 μL DMSO is added, followed by gently shaking the plate on a shaking table for 10 min. Detection is performed using microplate reader (ELX800, purchased from BIO-TEK) at a wavelength of 570 nm.
PI staining assay is performed as follows: The cells to which samples have been added are cultured for 24 hr, and then to the culture Hoechst 33342 (10 mM, purchased from Sigma, USA, Catalog #: B2261) and PI (Propidium Iodide) (10 mM, purchased from Beyotime Biotechnology, Catalog #: ST511) are added for 10 min of staining. Then, the cells are detected and photographed under a fluorescence microscope (Olympus IX71, purchased from Olympus). The number of the cells counted by this assay was 500.
HeLa cells were inoculated into a 96-well cell culturing plate at a density of about 1-2×10^4 cells/well, and cultured overnight for further use. At first, the medium was replaced with fresh DMEM medium, and then 10 μg/mL, 100 μg/mL, 250 μg/mL, 500 μg/mL, or 1000 μg/mL of UCN or UCP coated, with or without RE-1, were added, respectively. After culturing for 24 hr, MTT cell viability assay and PI staining were performed to detect the mortality of the cells.

[3] = Sedimentation / suspension time-dynamics curve of UCP (UV 500 nm); format: physicochemical; conditions: standing for 120 min; UCP with or without RE-1 coating
Method: 3 mg of UCN was mixed with 1.5 mg of RE-1 or its analogues RE-2, RE-3, or RE-5 as well as PEG, and the binding between them was performed according to a binding method. The excess and unbound RE-1 was washed off. The resultant precipitate was resuspended in 3 mL water, sonicated for 1 min, and then placed into a UV detection cell (X72053, Alpha Laboratories Ltd, UK). Observation was made using a UV spectrophotometer (DU-640, Beckman, USA) at an absorption wavelength of 500 nm for 120 min to obtain a time-dynamics curve.
The process described above was repeated except that 3 mg UCP and 500 μg RE-1 or its analogues RE-2, RE-3, RE-4, RE-5, RE-6, RE-7, RE-8, RE-9, or RE-10 and AP-1 were used. A time-dynamics curve was obtained.

[4] = Binding of FITC-RE-1 to UCN (time, concentration, pH, salt, temperature); conditions: 50 μg FITC-RE-1, 100 μg UCN
Method: 50 μg of FITC-RE-1 was incubated with 100 μg of UCN for different time periods (2 min, 10 min, 30 min, 120 min, and 720 min). Then, the amount of FITC-RE-1 fluorescent peptide binding to UCN was measured by using fluorescence spectrophotometer.
100 μg of UCN was incubated with FITC-RE-1 at various concentrations (5 μg, 10 μg, 25 μg, 50 μg, and 100 μg) for 1 hr. The excess and unbound peptides were washed off. The amount of FITC-RE-1 fluorescent peptide binding to UCN was measured by using fluorescence spectrophotometer.
50 μg of FITC-RE-1 was incubated with 100 μg of UCN dissolved at different pH values (pH 3, 5, 7, and 10) for 1 hr. The excess and unbound peptides were washed off. The amount of FITC-RE-1 fluorescent peptide binding to UCN was measured by using fluorescence spectrophotometer.
50 μg of FITC-RE-1 was incubated with 100 μg of UCN dissolved at different salt ion concentrations (0 M, 0.15 M, 0.3 M, and 0.5 M NaCl) for 1 hr. The excess and unbound peptides were washed off. The amount of FITC-RE-1 fluorescent peptide binding to UCN was measured by using fluorescence spectrophotometer.
50 μg of FITC-RE-1 was incubated with 100 μg of UCN dissolved in water at different temperatures (25° C., 37° C., 55° C., and 80° C.) for 1 hr. […] The amount of FITC-RE-1 fluorescent peptide binding to UCN was measured by using fluorescence spectrophotometer.

HeLa cells [5] = experiment: Adherence of UCN coated with RE-1 or RE-1-RGD to HeLa cells; format: cell-based; conditions: 37° C., 2 hr, versus uncoated
Method: HeLa cells were cultured on a coverslip (22 mm×22 mm), which was then placed into a 6-well plate with the cells facing upward or downward, and the coverslip was supported by a sterilized glass cube (2 mm×2 mm×2 mm). Then, 4 mL of DMEM medium containing the rare-earth upconversion nanophosphors coated with RE-1 or RE-1-RGD or without any coating was slowly poured into the 6-well plate, such that the cells were fully immersed in the medium, and the coverslip was just located at the middle of the height of the liquid. The cells were placed into a cell incubator at 37° C. for 2 hr, and then washed with PBS 3 times. The UCNs adhered to the surfaces of the cells were observed under a fluorescence microscope (Olympus IX71, Olympus, Japan) equipped with a 980-nm infrared laser (MDL-980 nm 1 W, Changchun New Industries Optoelectronics Tech. Co., Ltd, China).

HeLa cells [6] = experiment: Autophagosome formation in HeLa cells by transmission electron microscope; format: cell-based; conditions: 100 μg/mL UCN+RE-1 or UCP+RE-1, 24 hr
Method: HeLa cells were inoculated into a 24-well cell culturing plate at a density of about 3-5×10^4 cells/well, and cultured overnight for further use. At first, the medium was replaced with fresh DMEM medium, and then 100 μg/mL UCN, UCP, UCN+RE-1, or UCP+RE-1 was added. An equal volume of PBS was used as blank. After culturing for 24 hr, the cells were collected and in situ fixed with 2.5% glutaral-dimethyl arsine buffer (pH 7.4) at 4° C. for 1 hr, then fixed with 2% osmium tetroxide at room temperature for 1 hr, and then dehydrated with ethanol gradients. Then, the cell samples were embedded into epoxy resin (EPON812). The embedded cell samples were cut into ultrathin slices, which were stained with uranyl acetate and lead citrate, and observed and imaged under a transmission electron microscope (JEOL-1230, JEOL, Japan).

ACTARSPWICG [RE-1, RE-0 with terminal amino acids A and G added]
binding to rare-earth metal oxides and rare-earth upconversion nanophosphors ([1]; 10 μg FITC-RE-1, 1 mg/mL material, 1 hr, most strongly Y2O3, CeO2, Yb2O3, Nd2O3, UCN, UCN-S, UCP): strongly bound | binding to non rare-earth materials ([1]; diamond, TiO2, SiO2, SiO3, nano-silver, 10 μg FITC-RE-1, 1 hr): hardly bound | effect of coating with RE-1 on cytotoxicity of UCN, UCP (HeLa cells [2]): significantly reduced cytotoxicity | suspension / sedimentation of UCP in water [3]: still in suspension | binding to UCN at 2 min ([4]; 2 min): 50% | binding to UCN at 10 min ([4]; 10 min): almost binding saturation | number of coated upconversion nanophosphors adhered to the surface of the cells (HeLa cells [5]): greatly reduced | inhibition of autophagosome formation induced by UCN, UCP (HeLa cells [6]): significantly inhibited
